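Protocol summary: plate cells (96-well), add compound at 5 concentrations, incubate 48 h, interpolate endpoints linearly. GI50: concentration for 50% inhibition of growth.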 Active and inactive are the calls of the source. Rule as the data show it: active = GI50 up to about 1.1 µM and inactive = higher.
Tests used:
Test in all cases: NCI anticancer screen, dose series, 48 h
MOLT-4 = system: MOLT-4
RXF 393 = system: RXF 393
NCI-H460 = system: NCI-H460
COLO 205 = system: COLO 205
TK-10 = system: TK-10
U-251 = system: U-251
SNB-75 = system: SNB-75
LOX IMVI = system: LOX IMVI
OVCAR-5 = system: OVCAR-5
KM12 = system: KM12
NCI-H522 = system: NCI-H522
OVCAR-4 = system: OVCAR-4
HCT-116 = system: HCT-116
UO-31 = system: UO-31
UACC-62 = system: UACC-62
CAKI-1 = system: CAKI-1
CCRF-CEM = system: CCRF-CEM

SMILES | GI50 (MOLT-4) | GI50 (RXF 393) | GI50 (NCI-H460) | GI50 (COLO 205) | GI50 (TK-10) | GI50 (U-251) | GI50 (SNB-75) | GI50 (LOX IMVI) | GI50 (OVCAR-5) | GI50 (KM12) | GI50 (NCI-H522) | GI50 (OVCAR-4) | GI50 (HCT-116) | GI50 (UO-31) | GI50 (UACC-62) | GI50 (CAKI-1) | GI50 (CCRF-CEM)
O=C1CCC2(c3ccc(Cl)cc3)Nc3ccccc3N12 (stereo not given) | 30.3 µM (inactive) | 48.3 µM (inactive) | > 100 µM (inactive) | > 100 µM (inactive) | > 100 µM (inactive) | > 100 µM (inactive) | 19.3 µM (inactive) | > 100 µM (inactive) | > 100 µM (inactive) | > 100 µM (inactive) | 55.5 µM (inactive) | 75 µM (inactive) | 57 µM (inactive) | 49.7 µM (inactive) | – | – | –
CN1CN(C(=O)N2CN(C)C(=O)N(C)C2)CN(C)C1=O | > 100 µM (inactive) | – | – | > 100 µM (inactive) | – | – | > 100 µM (inactive) | > 100 µM (inactive) | > 100 µM (inactive) | > 100 µM (inactive) | > 100 µM (inactive) | – | > 100 µM (inactive) | > 100 µM (inactive) | > 100 µM (inactive) | > 100 µM (inactive) | > 100 µM (inactive)
Cc1coc2c1C(=O)C(=O)c1ccccc1-2 | 2.21 µM (inactive) | 1.74 µM (inactive) | 1.77 µM (inactive) | 1.5 µM (inactive) | 1.9 µM (inactive) | 1.61 µM (inactive) | 1.72 µM (inactive) | 0.305 µM (active) | 2.11 µM (inactive) | 1.81 µM (inactive) | 1.72 µM (inactive) | 1.82 µM (inactive) | 0.301 µM (active) | 3.1 µM (inactive) | 1.59 µM (inactive) | 1.86 µM (inactive) | 2.22 µM (inactive)
O=C(NC(Cc1ccccc1)C(=O)CCl)OCc1ccccc1 (stereo not given) | – | – | 5.74 µM (inactive) | 7.16 µM (inactive) | 15 µM (inactive) | 10.8 µM (inactive) | 11.5 µM (inactive) | 1.76 µM (inactive) | 11.8 µM (inactive) | 10 µM (inactive) | 1.67 µM (inactive) | – | 13.6 µM (inactive) | 12.9 µM (inactive) | 9.2 µM (inactive) | 5.15 µM (inactive) | 2.74 µM (inactive)
COc1cccc(C2SCc3nc4ccccc4n32)c1 (stereo not given) | 66.1 µM (inactive) | 53.6 µM (inactive) | > 100 µM (inactive) | > 100 µM (inactive) | 14.7 µM (inactive) | 76.6 µM (inactive) | 53 µM (inactive) | 54.6 µM (inactive) | 58.9 µM (inactive) | 56.4 µM (inactive) | – | > 100 µM (inactive) | 39.7 µM (inactive) | 22.1 µM (inactive) | 49.9 µM (inactive) | 37.9 µM (inactive) | > 100 µM (inactive)
N#CCC(=O)N/N=C1/C(=O)N(c2cc(Cl)ccc2Cl)C(=O)C(=O)C1c1nc2ccccc2s1 (stereo not given) | 45.9 µM (inactive) | < 0.01 µM (active) | 95.7 µM (inactive) | > 100 µM (inactive) | 81.8 µM (inactive) | 80.9 µM (inactive) | 38 µM (inactive) | 64 µM (inactive) | > 100 µM (inactive) | > 100 µM (inactive) | 61 µM (inactive) | > 100 µM (inactive) | 84.7 µM (inactive) | 36.9 µM (inactive) | 29.8 µM (inactive) | 29.5 µM (inactive) | 36.9 µM (inactive)
C/C(CCN(C)C)=N\OC(=O)c1ccccc1 | > 100 µM (inactive) | > 100 µM (inactive) | > 100 µM (inactive) | > 100 µM (inactive) | > 100 µM (inactive) | > 100 µM (inactive) | 50.8 µM (inactive) | > 100 µM (inactive) | > 100 µM (inactive) | > 100 µM (inactive) | > 100 µM (inactive) | > 100 µM (inactive) | > 100 µM (inactive) | > 100 µM (inactive) | > 100 µM (inactive) | > 100 µM (inactive) | > 100 µM (inactive)
COc1ccc(-c2onc(-c3c(C)cc(C)cc3C)c2C2=NCCN2)cc1 | 39.8 µM (inactive) | 39.2 µM (inactive) | 28.8 µM (inactive) | 20.4 µM (inactive) | – | 18.9 µM (inactive) | 84.9 µM (inactive) | 30.1 µM (inactive) | > 100 µM (inactive) | 44.5 µM (inactive) | > 10 µM (inactive) | > 100 µM (inactive) | 20.4 µM (inactive) | 17.1 µM (inactive) | 36.3 µM (inactive) | 21.1 µM (inactive) | 34 µM (inactive)
COC(OC)c1cc2c(cc1C=O)OCO2 | > 100 µM (inactive) | > 100 µM (inactive) | > 100 µM (inactive) | – | > 100 µM (inactive) | > 100 µM (inactive) | 21.2 µM (inactive) | – | > 100 µM (inactive) | > 100 µM (inactive) | > 100 µM (inactive) | > 100 µM (inactive) | > 100 µM (inactive) | 45.3 µM (inactive) | 44 µM (inactive) | 34.1 µM (inactive) | > 100 µM (inactive)
COc1ccc(C(=O)Cc2cc(OC)ccc2OC)cc1 | > 100 µM (inactive) | 58.9 µM (inactive) | > 100 µM (inactive) | > 100 µM (inactive) | > 100 µM (inactive) | > 100 µM (inactive) | 29 µM (inactive) | > 100 µM (inactive) | > 100 µM (inactive) | – | 43.3 µM (inactive) | > 100 µM (inactive) | > 100 µM (inactive) | > 100 µM (inactive) | > 100 µM (inactive) | > 100 µM (inactive) | > 100 µM (inactive)
CN1CCCC2(CCCc3ccccc32)C1 (stereo not given) | > 100 µM (inactive) | – | > 100 µM (inactive) | > 100 µM (inactive) | > 100 µM (inactive) | > 100 µM (inactive) | > 100 µM (inactive) | > 100 µM (inactive) | > 100 µM (inactive) | > 100 µM (inactive) | > 100 µM (inactive) | > 100 µM (inactive) | > 100 µM (inactive) | 80.2 µM (inactive) | > 100 µM (inactive) | > 100 µM (inactive) | > 100 µM (inactive)
Cc1ccc(C2CC(c3ccc([N+](=O)[O-])cc3)=Nc3ccccc3S2)cc1 (stereo not given) | 15.1 µM (inactive) | 12.1 µM (inactive) | 36.9 µM (inactive) | 41.8 µM (inactive) | 34.8 µM (inactive) | – | 21.4 µM (inactive) | 15.3 µM (inactive) | 44.5 µM (inactive) | 18.4 µM (inactive) | 20.1 µM (inactive) | 23.7 µM (inactive) | – | 18.9 µM (inactive) | 32.8 µM (inactive) | 31 µM (inactive) | 12.9 µM (inactive)
CCC(C)n1c(C)nc2c1C(=O)c1ccccc1C2=O (stereo not given) | 28.1 µM (inactive) | 26.7 µM (inactive) | 19.3 µM (inactive) | 43.5 µM (inactive) | 94.6 µM (inactive) | 44.8 µM (inactive) | 42.8 µM (inactive) | 23.1 µM (inactive) | – | > 100 µM (inactive) | 51.3 µM (inactive) | 73.1 µM (inactive) | 31.6 µM (inactive) | 37.8 µM (inactive) | 28.2 µM (inactive) | – | 37.2 µM (inactive)
CC1=C(Cl)C=CP(=O)(OC(C)C)C1 (stereo not given) | 40.7 µM (inactive) | > 100 µM (inactive) | > 100 µM (inactive) | > 100 µM (inactive) | > 100 µM (inactive) | > 100 µM (inactive) | 0.39 µM (active) | – | > 100 µM (inactive) | > 100 µM (inactive) | 27.8 µM (inactive) | > 100 µM (inactive) | 37.2 µM (inactive) | > 100 µM (inactive) | > 100 µM (inactive) | – | 37.5 µM (inactive)
Cc1nc2c(=O)[nH]c(=O)n(C)c2[nH]c1=O.c1ccncc1 | > 100 µM (inactive) | > 100 µM (inactive) | > 100 µM (inactive) | > 100 µM (inactive) | > 100 µM (inactive) | > 100 µM (inactive) | > 100 µM (inactive) | > 100 µM (inactive) | > 100 µM (inactive) | > 100 µM (inactive) | > 100 µM (inactive) | > 100 µM (inactive) | > 100 µM (inactive) | > 100 µM (inactive) | > 100 µM (inactive) | > 100 µM (inactive) | 10 µM (inactive)
COc1ccc(NN=C2C(=O)CCC2=O)cc1 | > 100 µM (inactive) | > 100 µM (inactive) | > 100 µM (inactive) | 47.2 µM (inactive) | > 100 µM (inactive) | > 100 µM (inactive) | > 100 µM (inactive) | > 100 µM (inactive) | > 100 µM (inactive) | > 100 µM (inactive) | – | 37.5 µM (inactive) | > 100 µM (inactive) | 98.9 µM (inactive) | 5.69 µM (inactive) | > 100 µM (inactive) | > 100 µM (inactive)
CC(C(=O)OCc1ccccc1)N(Cc1ccccc1)Cc1ccccc1 (stereo not given) | 33 µM (inactive) | 23.1 µM (inactive) | > 100 µM (inactive) | > 100 µM (inactive) | > 100 µM (inactive) | 98.4 µM (inactive) | 42.7 µM (inactive) | – | > 100 µM (inactive) | 58.7 µM (inactive) | 29.2 µM (inactive) | > 100 µM (inactive) | > 100 µM (inactive) | 75.3 µM (inactive) | > 100 µM (inactive) | > 100 µM (inactive) | 53.5 µM (inactive)
c1ccc(-c2ccnc3c2ccc2c(-c4ccccc4)ccnc23)cc1 | 0.514 µM (active) | 1.83 µM (inactive) | 2.39 µM (inactive) | 2.98 µM (inactive) | 0.279 µM (active) | 1.17 µM (inactive) | 2.92 µM (inactive) | 2.31 µM (inactive) | 1.04 µM (active) | 0.628 µM (active) | 1.46 µM (inactive) | 2.28 µM (inactive) | 0.555 µM (active) | 0.5 µM (active) | 0.418 µM (active) | – | 0.465 µM (active)

— ChEMBL document CHEMBL1201862, “PubChem BioAssay data set” (2004)
